Results on one compound are retold here after US7901893B2, “NPC1L1 (NPC3) and methods of identifying ligands thereof” (Merck Sharp & Dohme Corp., priority 2004, dated 2011).

One experiment concerns the target T1, human NPC1L1 (Homo sapiens, UniProt Q9UHC9, G1187D/M616T/T1073A).
T1 sequence (Q9UHC9 22-1332 isoform Q9UHC9-2 M616T/T1046A/G1160D limits assumed): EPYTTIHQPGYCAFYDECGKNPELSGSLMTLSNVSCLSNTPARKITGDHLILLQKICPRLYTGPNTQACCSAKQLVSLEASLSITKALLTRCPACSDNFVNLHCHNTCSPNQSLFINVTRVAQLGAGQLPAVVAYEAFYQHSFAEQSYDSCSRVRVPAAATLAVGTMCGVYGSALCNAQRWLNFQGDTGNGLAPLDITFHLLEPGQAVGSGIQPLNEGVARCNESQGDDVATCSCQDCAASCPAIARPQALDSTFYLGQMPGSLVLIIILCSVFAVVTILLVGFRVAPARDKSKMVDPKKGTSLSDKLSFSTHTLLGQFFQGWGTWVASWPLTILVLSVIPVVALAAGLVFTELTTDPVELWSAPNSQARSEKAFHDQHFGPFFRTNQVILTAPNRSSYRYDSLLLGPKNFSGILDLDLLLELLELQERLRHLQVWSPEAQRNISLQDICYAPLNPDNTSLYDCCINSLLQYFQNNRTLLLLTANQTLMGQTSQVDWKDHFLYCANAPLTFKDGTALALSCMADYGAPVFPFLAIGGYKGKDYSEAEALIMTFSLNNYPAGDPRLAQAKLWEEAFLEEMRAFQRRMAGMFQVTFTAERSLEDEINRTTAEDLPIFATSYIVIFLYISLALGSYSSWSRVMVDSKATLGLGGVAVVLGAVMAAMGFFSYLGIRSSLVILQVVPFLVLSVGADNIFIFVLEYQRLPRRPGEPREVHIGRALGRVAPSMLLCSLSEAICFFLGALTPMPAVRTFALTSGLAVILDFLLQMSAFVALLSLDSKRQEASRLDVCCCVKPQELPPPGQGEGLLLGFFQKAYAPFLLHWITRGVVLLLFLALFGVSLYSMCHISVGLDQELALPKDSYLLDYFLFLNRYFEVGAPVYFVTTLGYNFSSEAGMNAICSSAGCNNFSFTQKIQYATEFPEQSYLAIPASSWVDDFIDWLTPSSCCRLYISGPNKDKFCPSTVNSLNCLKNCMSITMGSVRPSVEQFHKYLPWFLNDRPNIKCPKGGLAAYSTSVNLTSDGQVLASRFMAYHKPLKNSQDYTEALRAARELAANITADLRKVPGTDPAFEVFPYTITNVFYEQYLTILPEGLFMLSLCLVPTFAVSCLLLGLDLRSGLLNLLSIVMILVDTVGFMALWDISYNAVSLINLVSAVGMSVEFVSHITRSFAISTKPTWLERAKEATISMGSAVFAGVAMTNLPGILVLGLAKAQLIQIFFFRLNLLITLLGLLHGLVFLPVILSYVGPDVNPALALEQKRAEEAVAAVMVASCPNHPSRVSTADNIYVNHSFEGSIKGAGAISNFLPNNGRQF
Briefly: Binding to membranes of HEK-293 cells expressing recombinant human NPC1L1. On the set-up: expressed in transfected cells; host or cells: HEK-293 cells (ATCC), transient, pCR3.1; membranes. The settings on record: 0.03% sodium taurocholate and 0.05% digitonin; 1.25 mg protein/ml, 100 nM 1. How it is done: (§1) Transient expression of NPC1L1. Plasmid pCR3.1 expressing rat NPC1L1 (Genbank AY437867) or human NPC1L1 (Genbank AY437865) were prepared using standard molecular biology protocols. HEK-293 cells (ATCC) were seeded at 10×10^6 cells per T-225 flask (Corning) in DMEM containing 10% fetal calf serum, 4.5 g/L D-glucose and L-glutamine, 18 hours prior to transfection. They were transiently transfected with 25 μg of DNA using Fugene transfection reagent (Roche Biochemical) at a ratio of 6:1 Fugene:DNA. Following transfection, the cells were incubated at 37° C. and 5% CO2 for 48 hours, and then harvested using PBS based cell dissociation buffer (Gibco), pelleted at 500×g, snap frozen on dry ice, and stored at −80° C.
(§2) Membrane preparation from HEK-293 cells. Membranes were prepared by resuspending the frozen cell pellets in ten volumes of 20 mM HEPES/Tris buffer at pH 7.40 containing 8% sucrose, and sonicating the suspensions with a probe sonicator on ice until most of the cells were lysed. To isolate the membranes, the sonicates were centrifuged at 1600×g for 10 min to remove cell debris, and then the supernatants were centrifuged at 125,000×g for 1 hour to recover the membranes. These membranes were resuspended in 20 mM HEPES/Tris buffer at pH 7.40 containing 160 mM NaCl and 5% glycerol, and stored at 10-20 mg/ml protein at −80° C.
(§3) Analog structures are defined in Table 12.

For experiment [1], the target named is T2, rat brush border membrane vesicles (Rattus norvegicus, UniProt Q6T3U3).
T2 construct: from tissue; host or cells: rat (male Sprague-Dawley) small-intestinal mucosa, brush border membrane vesicles
As to the kind of experiment: Binding assay with rat brush border membrane vesicles.
Text: Glass fiber filters (GF/C) were obtained from Whatman.
Rate constants for binding and dissociation.
as §3

In experiment [2] the target is T3, rhesus brush border membrane vesicles (Macaca mulatta, UniProt A0MJA5).
T3 sequence (A0MJA5 1-1332): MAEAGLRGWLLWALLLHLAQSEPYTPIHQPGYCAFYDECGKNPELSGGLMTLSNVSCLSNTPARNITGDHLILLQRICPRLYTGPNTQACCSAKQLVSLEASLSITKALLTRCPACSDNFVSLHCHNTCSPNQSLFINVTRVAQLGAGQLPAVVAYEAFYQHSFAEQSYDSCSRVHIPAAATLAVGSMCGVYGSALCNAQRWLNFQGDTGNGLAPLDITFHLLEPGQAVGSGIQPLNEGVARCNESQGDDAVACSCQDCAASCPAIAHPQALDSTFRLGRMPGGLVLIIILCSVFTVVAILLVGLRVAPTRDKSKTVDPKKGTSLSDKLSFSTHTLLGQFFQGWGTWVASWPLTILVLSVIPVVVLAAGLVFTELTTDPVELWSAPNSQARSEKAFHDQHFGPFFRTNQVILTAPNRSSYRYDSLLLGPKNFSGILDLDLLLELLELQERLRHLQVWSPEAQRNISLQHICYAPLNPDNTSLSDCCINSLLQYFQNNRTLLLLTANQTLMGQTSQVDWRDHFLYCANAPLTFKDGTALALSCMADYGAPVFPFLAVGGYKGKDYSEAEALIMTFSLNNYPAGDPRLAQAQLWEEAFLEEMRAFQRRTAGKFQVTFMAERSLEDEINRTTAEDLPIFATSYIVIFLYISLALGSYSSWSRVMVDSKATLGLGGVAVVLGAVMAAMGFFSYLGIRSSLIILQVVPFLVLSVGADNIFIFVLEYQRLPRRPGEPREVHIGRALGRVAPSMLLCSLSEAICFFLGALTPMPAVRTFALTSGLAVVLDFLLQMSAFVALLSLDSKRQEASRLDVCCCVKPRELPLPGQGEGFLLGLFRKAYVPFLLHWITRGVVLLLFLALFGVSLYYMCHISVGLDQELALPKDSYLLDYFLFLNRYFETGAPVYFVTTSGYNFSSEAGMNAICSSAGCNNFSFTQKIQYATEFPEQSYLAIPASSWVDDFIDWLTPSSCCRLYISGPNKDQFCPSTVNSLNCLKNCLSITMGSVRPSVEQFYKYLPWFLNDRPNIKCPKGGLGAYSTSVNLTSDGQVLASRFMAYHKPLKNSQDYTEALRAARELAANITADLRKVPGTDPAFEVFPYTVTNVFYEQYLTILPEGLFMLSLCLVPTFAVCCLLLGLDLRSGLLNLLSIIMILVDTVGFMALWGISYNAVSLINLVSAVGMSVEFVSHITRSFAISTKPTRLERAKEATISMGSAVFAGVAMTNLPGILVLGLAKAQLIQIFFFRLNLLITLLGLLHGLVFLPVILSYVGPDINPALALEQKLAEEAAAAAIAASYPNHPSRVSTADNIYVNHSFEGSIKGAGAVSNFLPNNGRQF
Briefly: Binding assay with rhesus brush border membrane vesicles.
Procedure: The intestines from freshly sacrificed animals were cut into segments, perfused with ice-cold saline buffer (Buffer A: 26 mM NaHCO3, 0.96 mM NaH2PO4, 5 mM HEPES, 5.5 mM glucose, 117 mM NaCl, 5.4 mM KCl, pH=7.4), placed on cold glass plates, opened longitudinally, and the mucosa scraped with glass microscope slips. This mucosa could be used fresh or frozen with identical results. To prepare the membranes, the mucosal scrapings were resuspended in 20 volumes of cold buffer consisting of 300 mM D-mannitol, 5 mM EGTA, 12 mM Tris, pH 7.4 with HCl, and containing 0.1 mM PMSF and a 1% dilution of a protease inhibitor cocktail (set 1, Calbiochem). They were homogenized using a Polytron at medium speed on ice until inspection with a microscope indicated complete cell lysis. Then, solid MgCl2 was added slowly with stirring to a final concentration of 10 mM, and the solution was kept stirring on ice for 15 min. Cellular debris was removed by centrifugation for 15 min at 3,000 g, and the membranes were recovered by centrifugation for 60 min at 48,000 g. The membranes were further rinsed by re-suspension in a buffer containing 50 mM D-mannitol, 5 mM EGTA, and 2 mM Tris at pH 7.40, and centrifugation for 60 min at 48,000 g. The final pellet was resuspended in 120 mM NaCl and 20 mM Tris at pH 7.40 to a concentration of ˜10-20 mg protein/ml, aliquoted, frozen in liquid nitrogen, and stored at −80 C. The activity was stable indefinitely and could be freeze-thawed with minimal loss of activity.
Binding assay. Assays were conducted in 12×75 mm glass test tubes and total volume 20-100 ul. In general, frozen membranes were diluted in buffer A or buffer A containing 0.03% taurocholate and 0.05% digitonin to a final concentration of 0.02 to 5 mg/ml. […] Competing ligands were likewise added as DMSO solutions to give a total 2-10% organic solvent content. […] At least 2 components of buffer A, the bicarbonate and phosphate salts, were later found to be inconsequential and were routinely omitted.
Bound ligand was quantified by single-tube vacuum filtration using GF/C glass fiber filters. […] Filtration was accomplished by adding 2.5 ml of ice cold buffer (120 mM NaCl, 0.1% sodium cholate, and 20 mM MES at pH 6.70) to the assay tube, pouring the mixture through the filter, and then rinsing the tube and filter twice more with another 2×2.5 ml buffer. The filters were counted in 7 ml vials using Packard DM liquid scintillation fluid.
Data analysis. Data from saturation experiments were subjected to a Scatchard analysis, and linear regression was performed to yield the equilibrium dissociation constant (Kd) and maximum receptor concentration (Bmax). […] Data from competition experiments were analyzed and IC50 values determined from Hill plots of the binding data.

For a further experiment, the target named is rat NPC1L1 (Rattus norvegicus, UniProt Q6T3U3). As to the kind of experiment: Binding to membranes of HEK-293 cells expressing recombinant rat NPC1L1. On the set-up: expressed in transfected cells; host or cells: HEK-293 cells (ATCC), transient, pCR3.1; membranes. The note with it: 0.03% sodium taurocholate and 0.05% digitonin; 1.25 mg protein/ml, 100 nM 1. The protocol:
as §1, §2, §3

Broadly, the Ki is a dissociation constant, usually derived from enzyme kinetics or from competition with a known ligand. The IC50 is the point on the concentration scale where inhibition reaches its midpoint. As for `O=C(O)[C@H]1O[C@@H](Oc2ccc([C@@H]3[C@@H](CC[C@H](O)c4ccc(F)cc4)C(=O)N3c3ccc(F)cc3)c(O)c2)[C@H](O)[C@@H](O)[C@@H]1O` [Compound 7], the Ki stood at 0.21 µM at human NPC1L1; 0.28 µM in experiment [1] (0.03% sodium taurocholate and 0.05% digitonin, 1.25 mg protein/ml, 100 nM 1, read-out: Rat BBM Ki); 0.06 µM in experiment [2]; 0.36 µM on rat NPC1L1. Moreover, the IC50 in experiment [1] (rat brush border membrane vesicles, read-out: RAT IC50 (nM), inhibition of ^3H-EZE-gluc binding) came to 252 nM.
